Results taken from paper PMC6739136 (Neuropeptides, 2019).

Test system: urinary bladder pressure, anesthetized minipigs
Assay: Cystometry
Assay type: in vivo, minipig (Gottingen, Sinclair)
Details: GR 159897 1 mg/kg IV, 15 min prior to LMN-NKA, N=2, anesthetized minipigs, DT-063

Compound: COC1(C[S@@+]([O-])c2ccccc2)CCN(CCc2c[nH]c3ccc(F)cc23)CC1 [GR 159897, 5-Fluoro-3-[2-[4-methoxy-4-[[(R)-phenylsulphinyl]methyl]-1-piperidinyl]ethyl]-1H-indole]
- effect on increase in bladder pressure induced by 100 μg/kg SC of LMN-NKA: blocked
